Assay results published in ChEMBL document CHEMBL3132801, “Meridianin G and its analogs as antimalarial agents” (Medchemcomm, 2013).
Values after ≈ are worked out from the molar mass of the structure shown. Active and inactive are the calls of the source. The rule behind the calls is not given here.

Tests used:
Aspergillus fumigatus = experiment: Antimicrobial activity against Aspergillus fumigatus by NCCLS method; format: functional, organism-based
Candida albicans = experiment: Antimicrobial activity against Candida albicans by NCCLS method; format: functional, organism-based
Cryptococcus neoformans = experiment: Antimicrobial activity against Cryptococcus neoformans by NCCLS method; format: functional, organism-based
Staphylococcus aureus [1] = experiment: Antimicrobial activity against methicillin-resistant Staphylococcus aureus by NCCLS method; format: functional, organism-based
Staphylococcus aureus [2] = experiment: Antimicrobial activity against Staphylococcus aureus by NCCLS method; format: functional, organism-based
Leishmania donovani = experiment: Antileishmanial activity against Leishmania donovani promastigotes after 48 hrs by Alamar Blue assay; format: functional, organism-based; conditions: Leishmania donovani, 48 h; read-out: IC50
[3] = Selectivity index, ratio of IC50 for pig LLC-PK1 cells to IC50 for Plasmodium falciparum W2; format: toxicity, cell-based; conditions: read-out: Ratio IC50
[4] = Selectivity index, ratio of IC50 for african green monkey Vero cells to IC50 for Plasmodium falciparum W2; format: toxicity, cell-based; conditions: read-out: Ratio IC50
[5] = Selectivity index, ratio of IC50 for human HepG2 cells to IC50 for Plasmodium falciparum W2; format: toxicity, cell-based; conditions: read-out: Ratio IC50
[6] = Selectivity index, ratio of IC50 for pig LLC-PK1 cells to IC50 for Plasmodium falciparum D6; format: toxicity, cell-based; conditions: read-out: Ratio IC50
[7] = Selectivity index, ratio of IC50 for african green monkey Vero cells to IC50 for Plasmodium falciparum D6; format: toxicity, cell-based; conditions: read-out: Ratio IC50
[8] = Selectivity index, ratio of IC50 for human HepG2 cells to IC50 for Plasmodium falciparum D6; format: toxicity, cell-based; conditions: read-out: Ratio IC50
LLC-PK1 = experiment: Cytotoxicity against a pig LLC-PK1 cells after 48 hrs by Neutral Red assay; format: cell-based; conditions: Sus scrofa, LLC-PK1, 48 h
Vero = experiment: Cytotoxicity against african green monkey Vero cells after 48 hrs by Neutral Red assay; format: cell-based; conditions: Chlorocebus sabaeus
HepG2 = experiment: Cytotoxicity against human HepG2 cells after 48 hrs by Neutral Red assay; format: cell-based; conditions: HepG2, 48 h
Plasmodium falciparum [9] = experiment: Antimicrobial activity against Plasmodium falciparum W2 after 72 hrs by LDH activity assay; format: functional, organism-based; conditions: Plasmodium falciparum, W2, 72 h; read-out: IC50
Plasmodium falciparum [10] = experiment: Antimicrobial activity against Plasmodium falciparum D6 after 72 hrs by LDH activity assay; format: functional, organism-based; conditions: Plasmodium falciparum, D6, 72 h; read-out: IC50
Plasmodium falciparum [11] = experiment: Antimicrobial activity against Plasmodium falciparum NF54; format: functional

Row | Structure (SMILES) | Activity (Aspergillus fumigatus) | Activity (Candida albicans) | IC50 (Cryptococcus neoformans) [µM] | MBC (Cryptococcus neoformans) | MIC (Cryptococcus neoformans) | IC50 (Staphylococcus aureus [1]) | MBC (Staphylococcus aureus [1]) | MIC (Staphylococcus aureus [1]) | IC50 (Staphylococcus aureus [2]) | MBC (Staphylococcus aureus [2]) | MIC (Staphylococcus aureus [2]) | IC50 (Leishmania donovani) [µM] | selectivity ratio [3] | selectivity ratio [4] | selectivity ratio [5] | selectivity ratio [6] | selectivity ratio [7] | selectivity ratio [8] | IC50 (LLC-PK1) [µM] | IC50 (Vero) [µM] | further results
1 | Nc1nccc(-c2cn(C(=O)c3ccccc3)c3ccc(Br)cc23)n1 | inactive | inactive | 24.3 | inactive | inactive | Not Active | inactive | inactive | Not Active | inactive | inactive | 105 | > 16 | > 16 | > 16 | > 8.5 | > 8.5 | > 8.5 | > 64 | > 64 | IC50 (HepG2): > 64 µM; IC50 (Plasmodium falciparum [9]): 3.98 µM; IC50 (Plasmodium falciparum [10]): 7.45 µM
2 | CN1CCN(c2ncc(-c3ccccc3)c(-c3c[nH]c4ccccc34)n2)CC1 | – | – | – | – | – | – | – | – | – | – | – | – | – | – | – | – | – | – | – | – | MIC (Plasmodium falciparum [11]): 3 µM (≈ 1.11 µg/mL)
3 | Nc1nccc(-c2c[nH]c3ccc(Br)cc23)n1 [MERIDIANIN C] | inactive | inactive | 56.5 | inactive | inactive | Not Active | inactive | inactive | Not Active | inactive | inactive | 64.9 | > 7.4 | > 7.4 | > 7.4 | > 6 | > 6 | > 6 | > 87 | > 87 | IC50 (HepG2): > 87 µM; IC50 (Plasmodium falciparum [9]): 11.7 µM; IC50 (Plasmodium falciparum [10]): 14.4 µM
